Results: PMC8162438, “Cancer cell-selective modulation of mitochondrial respiration and metabolism by potent organogold(III) dithiocarbamates” (Chemical Science, 2020)

Columns and labels:
MDA-MB-231 = experiment: Seahorse XF96 mitochondria stress test (OCR), MDA-MB-231; format: cell-based
From the text: With the previous biological data pointing towards metabolic changes, we sought to explore further the effect 2a had on redox metabolism. The ETC is a complicated biological system that is constantly changing in response to external stress in order to achieve redox homeostasis within the cell. With the DEG data alluding to involvement of ETC genes (Fig. 9A), we then decided to look in depth at the effect of complexes on these biological parameters. We next performed oxygen consumption rate (OCR) experiments by Seahorse 96XF to quantify the effect of 2a on mitochondrial bioenergetics or stress (MitoStress) (Fig. 9B and C).[87] A series of known inhibitors of the various parts of the ETC that allow for the measurement of specific parameters were used. […] ATP linked respiration was also calculated and found to be decreased by more than 80% at 3 μM treatment (Fig. 9F). […]
For the wells that were pre-treated with NAC, a stock solution of NAC in DMEM was added at a concentration of 10 mM for 2 h prior to the addition of 2a. […] The cells were then analyzed using FACS with the FITC channel […]
Mitochondrial Metabolism Analysis with Seahorse XF96 Analysis. […] The optimum conditions were determined to be 30,000 cells/well and an FCCP injection concentration of 0.6 µM. […]

MRC5 = experiment: Seahorse XF96 mitochondria stress test (OCR), MRC5; format: cell-based, human; details: MRC5, 0.1–3 μM

C[N+](C)=C1[S][Au-2]2([S]1)[c]1ccccc1Cc1cccc[n+]12.F[P-](F)(F)(F)(F)F (stereo not drawn) [2a]
Decrease of maximal OCR (MDA-MB-231; MDA-MB-231, 1 μM, within 50 minutes, compared to control): more than 25% | Decrease of basal OCR (MDA-MB-231; MDA-MB-231, 3 μM, 17 minutes from injection): more than 20% | Effect on OCR of MRC5 (MRC5): did not impact the OCR
